Assay results from patent US12648948B2, “Methods and compositions for treating cancer” (UNITED STATES GOVERNMENT AS REPRESENTED BY THE DEPARTMENT …, priority 2017, dated 2026).

How the values were obtained:
[1] = system: primary embryonic cultures and differentiated PC12 cells; details: at dosages that inhibit activation of JNKs, after trophic withdrawal; cited from earlier work
[2] = system: U87EGFRwt and U87EGFRvIII cells; assay: AlamarBlue cell viability assay, established GBM cell lines; type: cell-based, human; details: established GBM cell lines, 72 h; for Cell viability, inhibitor alone: without erlotinib
Method: (§1) Cell viability assay was conducted using AlamarBlue cell viability assay kit (ThermoFisher) following manufacturer's protocol. Cells were cultured in Corning 96-well black plates with clear bottom (5000 cells/well). Drugs were added to cells for 72 hour following detection using POLARstar Omega Microplate Reader (excitation at 544 nm and emission at 590 nm) (BMG LABTECH, Germany).

[3] = system: GBM9 and GBM39 neurospheres; assay: AlamarBlue cell viability assay, patient derived GBM neurospheres; type: cell-based, human; details: 72 h; for Cell viability, inhibitor combined with erlotinib: erlotinib 100 nM, SP600125, U0126, R428, thalidomide 1 μM, Enbrel 100 nM; for Cell viability, inhibitor alone: without erlotinib, 1 μM
Method: as §1

GBM9 cells = assay: Annexin-FACS assay and Caspase 3/7 activation; type: cell-based, human; details: GBM9 cells, 72 h, Annexin-FACS
Method: Annexin assay was performed by using Annexin—V-FLUOS Staining kit (Roche applied Science). Cells (1×10^6) were plated in 6 well plates and treated with drugs or vehicle alone. After 72 hours cells were trypsinized and washed 2 times with 1×PBS. The cells were incubated for 15 minutes at room temperature with Propidium Iodide and Annexin—V-FLUOS labeling solution in incubation buffer. Annexin and/or PI positive cells were detected by Flow Cytometry.
Caspase activity in the supernatant was measured using the Caspase-Glo 3/7 Assay (Promega, G8091) following manufacturer's instructions. Briefly, 72 hours after treatments, cells were washed by cold PBS and total cell lysates were prepared. 50 μg of total protein per sample was added per well of a 96 well plate and was incubated with 100 μl Caspase 3/7 reagent for 30 minutes. The luminescence of each sample was measured using a luminometer. All experiments included at least 3 replicates per group and were repeated 3 times.

GBM = details: cited from earlier work
TNF = TNF mRNA (qRT-PCR) and TNF ELISA in glioma cells; type: cell-based, human; details: GBM9 and U87EGFRwt, thalidomide 1 μM
Method: Total RNA was isolated by TRIzol Reagent (Ambion). cDNA Reverse Transcription were performed by using High-Capacity cDNA Reverse Transcription Kit (Applied Biosystems). PCR primers were synthesized by IDT (Coralville, IA). Each PCR was carried out in triplicate in a 20 μl volume using SYBR Green Master Mix (Applied Biosystems) for 15 minutes at 95° C. for initial denaturing, followed by 40 cycles of 95° C. for 15 s and 60° C. for 60 s in ViiA 7 Real-Time PCR System (Applied Biosystems). At least two independent experiments were done. Values for each gene were normalized to expression levels of GAPDH mRNA.
2×10^6 cells were incubated in serum-free or EGF free medium containing different concentrations of erlotinib or DMSO. After 48 hours, supernatant and cell lysates were collected. Supernatant medium was concentrated 5-10-fold with Pierce protein concentrator (ThermoFisher). TNF protein concentration in supernatant, cell lysates and tissue extracts was determined by ELISA using a commercial TNF detection kit (ThermoFisher) according to manufacturer's instructions. Additionally, GAS6 protein concentration in supernatant was measured by ELISA kit (LifeSpan BioSciences).

[4] = system: JNK-Axl-ERK signaling pathway; assay: Western blot, erlotinib-induced JNK-Axl-ERK signaling pathway in glioma cells; type: cell-based, human; details: GBM9, GBM39 neurospheres and U87EGFRwt cells
Method: Western blot analysis was performed according to standard protocols.

[5] = system: JNK-Axl-ERK signaling axis; assay: Signal transduction in intracranial GBM9 tumors (Western blot, IHC); type: in vivo, mice; details: thalidomide given with erlotinib
Method: To detect the in vivo levels of TNF, 1×10^6 GBM9 cells were injected into the right flanks of nude mice. When the subcutaneous tumor reached a volume of around 200 mm^3, the mice were treated with erlotinib to monitor the upregulation of TNF protein. The animals were dosed consecutively for 1, 2, 7 or 14 days and then sacrificed. The animals without treatment were considered as control (0-day treatment). Tumor tissues were rinsed in PBS and protein was extracted to analyze the TNF levels using ELISA and also used for western blot. To detect the protein expression in mice brain tumor tissues upon drug treatment, the same procedure was performed in orthotopic models. Additionally, with orthotopic models, mice were divided into four groups (control gavage group, erlotinib group, thalidomide group and erlotinib plus thalidomide, n=3). After 48 hours treatment tumors were harvested and subjected to Western blot and immunostaining.
Tumors from nude mice brains were fixed in 10% formalin and embedded in paraffin. Paraffin-embedded sections were cut at five-micrometer thickness. Immunohistochemical staining was performed using the ABC streptavidin-biotin method with the Vectastain ABC kit (Vector Laboratories, Burlingame, CA, USA) according to the manufacturer's protocol. Briefly, after deparaffinization and rehydration, endogenous peroxidase activity was quenched by a 10 min incubation in 3% H2O2. For antigen retrieval, the tissue sections were boiled in 10 mM sodium citrate buffer (pH 6.0) for 20 minutes. Binding of primary anti-pERK (1:100, Cell Signaling Technology, 4376) or anti-pJNK antibody (1:200, Cell signaling Technology, 4668) or anti-pAXL(1:400, R&D, AF2228) was carried out overnight at 4° C. The signal was detected by using the Sigmafast 3,3′-Diaminobenzidine tablets (DAB; Sigma, St. Louis MO). The sections were counterstained lightly with hematoxylin. The IHC staining intensity was scored semiquantitatively as: 0=No positive staining; 1=1-25% tumor cells stained, 2=26%-75% tumor cells stained and 3=>75% tumor cells stained.

GBM9 intracranial tumors = assay: Orthotopic (intracranial) GBM9 model, survival and bioluminescence imaging; details: erlotinib 50 mg/kg oral gavage and/or thalidomide 150 mg/kg i.p., 10 days; repeated with afatinib
Method: For the orthotropic model, 1×10^5 GBM9 cells expressing firefly luciferase were injected into the right corpus striatum of the brains of 6-8-week-old nude mice using a stereotactic frame. […] The mice were treated with erlotinib 50 mg/kg by oral gavage and/or intraperitoneal (i.p.) injection of 150 mg/kg thalidomide for 10 consecutive days. Bioluminescence imaging (BLI) was performed to record the growth of tumor every 5 days. Kaplan-Maier survival curves were calculated using GraphPad Prism 7.0 software. Mice were monitored and sacrificed when neurological signs appeared or after 40 days.

[6] = mouse, in vivo
GBM9 subcutaneous tumors = assay: Subcutaneous GBM9 xenograft tumor growth; type: in vivo, athymic nude mice; details: erlotinib 50 mg/kg oral gavage, SP600125 40 mg/kg i.p., thalidomide 150 mg/kg i.p., daily for 10 days
Method: 4 to 6 weeks old female athymic nude mice were purchased from Charles River Laboratories. The mice were housed in plastic cages (4-5 mice per cage) in a room with a 12 hour day-night cycle. 1×10^6 GBM9 cells were subcutaneously injected into the right flank of each nude mouse. […] The mice were randomly divided into control and treatment groups, mice were treated with drugs using the indicated doses. For combination treatment, both drugs were given concurrently for indicated periods. Tumor dimensions were measured by caliper every two days and tumor volumes calculated by the formula: volume=length×width×width/2. Mice were sacrificed when tumors reached over […] or 24 days from the first day of treatment.

EGFR = assay: Western blot, EGFR activation in U87EGFRwt cells; type: cell-based, human; details: serum starved, cetuximab overnight, EGF 50 ng/ml 15 min
ERK = assay: Western blot, ERK activation (pERK) in glioma cells; details: U87EGFRwt cells, serum starved; cetuximab overnight; EGF 50 ng/ml 15 min
Method: Western blot analysis was performed according to standard protocols. In all experiments, before the addition of EGF or erlotinib established cells were cultured overnight in serum free DMEM and primary GBM neurospheres were EGF starved overnight. Cells not treated with EGF or erlotinib were also serum or EGF starved.

[7] = single-arm phase II trial, GBM patients at first recurrence

Molecule: CCSCc1ccc2c(c1)c1c3c(c4c5cc(CSCC)ccc5n5c4c1n2[C@H]1C[C@](O)(C(=O)OC)[C@]5(C)O1)CNC3=O [CEP-1347]
- Neuronal survival [1]: promotes neuronal survival

Molecule: Nc1nc(Nc2ccc3c(c2)CC[C@@H](N2CCCC2)CC3)nn1-c1cc2c(nn1)-c1ccccc1CCC2 [R428]
- Cell viability, inhibitor combined with erlotinib [2]: sensitive to erlotinib
- Cell viability, inhibitor alone [2]: does not affect the viability of these cells
- Cell viability, inhibitor combined with erlotinib [3]: sensitive to erlotinib
- Cell viability, inhibitor alone [3]: does not affect the viability of these cells
- Number of viable (unstained) cells, inhibitor combined with erlotinib (GBM9 cells): decreases the number of viable cells

Molecule: N#CC(=C(/N)Sc1ccccc1N)/C(C#N)=C(\N)Sc1ccccc1N [U0126]
- Cell viability, inhibitor combined with erlotinib [2]: a combined inhibition of EGFR with ERK or JNK leads to a significant cell death
- Cell viability, inhibitor alone [2]: also resistant to EGFR inhibition or JNK inhibition or ERK inhibition alone
- Cell viability, inhibitor combined with erlotinib [3]: significant cell death
- Cell viability, inhibitor alone [3]: resistant to JNK or ERK inhibition alone
- Number of viable (unstained) cells, inhibitor combined with erlotinib (GBM9 cells): decreases the number of viable cells

Molecule: COc1cc2ncnc(Nc3ccc(F)c(Cl)c3)c2cc1OCCCN1CCOCC1 [gefitinib]
- Median overall survival (OS) (GBM; [7]): about 39 weeks
- Radiographic responses (GBM; [7]): No radiographic responses

Molecule: O=C1CCC(N2C(=O)c3ccccc3C2=O)C(=O)N1 (stereo not shown) [thalidomide]
- Cell viability, inhibitor combined with erlotinib [2]: had the same effect
- Clinical efficacy in GBM patients (GBM; human, in vivo): without success
- Erlotinib-induced increase in TNF secretion in presence of thalidomide (TNF): block the erlotinib-induced increase in TNF secretion
- Erlotinib-induced activation of the JNK-Axl-ERK signaling pathway in presence of TNF inhibitor [4]: interruption of the erlotinib-induced activation of the JNK-Axl-ERK signaling pathway
- Cell viability, thalidomide combined with afatinib ([3]; afatinib 100 nM, thalidomide 1 μM): sensitizes
- Cell viability, inhibitor combined with erlotinib [3]: had the same effect
- JNK-Axl-ERK signaling axis in intracranial tumors (Western blot) ([5]; erlotinib 50 mg/kg): blocked the EGFR inhibition induced upregulation of the TNF-JNK-Axl-ERK signaling axis
- pAxl, pJNK and pERK immunostaining of brain sections ([5]; orthotopic model): inhibits erlotinib induced pAxl-pJNK-pERK activation
- Survival of mice (GBM9 intracranial tumors): neither erlotinib nor thalidomide alone had a significant effect
- Number of viable (unstained) cells, inhibitor combined with erlotinib (GBM9 cells): decreases the number of viable cells
- Body weight of orthotopic models [6]: Body weight losses
- Growth of subcutaneous tumors (GBM9 subcutaneous tumors): no significant effect on the growth of tumors

Molecule: EGF: Recombinant human EGF from Peprotech
- Basal EGFR activation (EGFR): further increases in EGFR and ERK activation
- Basal ERK activation (ERK): further increases in EGFR and ERK activation

Molecule: Etanercept
- Cell viability, inhibitor combined with erlotinib [2]: sensitive to the effects of EGFR inhibition
- Erlotinib-induced activation of the JNK-Axl-ERK signaling pathway in presence of TNF inhibitor [4]: interruption of the erlotinib-induced activation of the JNK-Axl-ERK signaling pathway
- Cell viability, inhibitor combined with erlotinib [3]: sensitive to the effects of EGFR inhibition
- Number of viable (unstained) cells, inhibitor combined with erlotinib (GBM9 cells): decreases the number of viable cells
